Assay results reported in article PMC6681697, “One-Step ^18F-Labeling and Preclinical Evaluation of Prostate-Specific Membrane Antigen Trifluoroborate Probes for Cancer Imaging” (Journal of Nuclear Medicine, 2019).

How the values were obtained:
[1] = biological target: T1, PSMA (Homo sapiens, UniProt Q04609); experiment: In vitro competition binding assay on LNCaP cells with ^18F-DCFPyL as radioligand
T1 construct: because it expresses PSMA endogenously and is commonly used to evaluate PSMA-targeting radiotracers; endogenous in cells; host or cells: LNCaP cells
T1 sequence (Q04609 whole entry): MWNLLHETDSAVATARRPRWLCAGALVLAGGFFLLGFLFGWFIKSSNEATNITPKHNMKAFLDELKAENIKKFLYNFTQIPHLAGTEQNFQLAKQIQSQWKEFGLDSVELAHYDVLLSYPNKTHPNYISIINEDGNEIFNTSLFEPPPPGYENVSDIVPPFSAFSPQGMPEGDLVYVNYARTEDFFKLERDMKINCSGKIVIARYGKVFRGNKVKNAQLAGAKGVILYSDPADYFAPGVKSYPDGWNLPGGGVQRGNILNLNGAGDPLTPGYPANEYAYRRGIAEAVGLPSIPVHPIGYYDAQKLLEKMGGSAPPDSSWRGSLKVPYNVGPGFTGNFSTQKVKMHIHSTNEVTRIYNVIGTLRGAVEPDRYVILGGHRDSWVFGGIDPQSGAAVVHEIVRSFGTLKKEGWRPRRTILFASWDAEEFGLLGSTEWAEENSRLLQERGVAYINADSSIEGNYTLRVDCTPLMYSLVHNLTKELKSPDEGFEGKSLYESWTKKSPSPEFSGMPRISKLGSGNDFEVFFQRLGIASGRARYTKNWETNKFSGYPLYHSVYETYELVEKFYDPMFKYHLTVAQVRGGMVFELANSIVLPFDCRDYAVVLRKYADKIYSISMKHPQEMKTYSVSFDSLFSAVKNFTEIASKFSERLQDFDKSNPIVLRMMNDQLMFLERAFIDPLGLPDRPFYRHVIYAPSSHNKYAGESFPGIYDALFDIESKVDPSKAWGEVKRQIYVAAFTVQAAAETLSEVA
Method: LNCaP cells were plated onto a 24-well poly-D-lysine coated plate for 48 h (400,000/well). […] Nonspecific binding was determined in the presence of 10 μM unlabeled DCFPyL. The assay mixtures were incubated for 1 h at 37°C with gentle agitation followed by 2 washes with cold HEPES buffered saline. A trypsin solution (0.25%, 400 μL) was then added to each well to harvest the cells. Radioactivity was measured by γ-counting, and Ki values were calculated using the “1 site—fit Ki” built-in model in Prism 7 (GraphPad).

[2] = Distribution coefficient (LogD7.4), shake flask method; format: physicochemical; details: n-octanol / phosphate buffer 0.1 M pH 7.4; n = 3
Method: LogD7.4 values were measured using the shake flask method. Briefly, an aliquot of ^18F-labeled tracer was added to a vial containing 2.5 mL of n-octanol and 2.5 mL of phosphate buffer (0.1 M, pH 7.4). The mixture was vortexed for 2 min and then centrifuged at 3,000g for 10 min. A sample of the n-octanol (0.1 mL) and buffer (0.1 mL) layers was counted using a γ-counter. Values of LogD7.4 were calculated using the following equation: LogD7.4 = log10 [(counts in n-octanol phase)/(counts in buffer phase)].

[3] = system: LNCaP xenografts; experiment: Ex vivo biodistribution and blocking studies in mice bearing LNCaP xenografts; details: for tumor uptake: LNCaP tumor
Method: Imaging and biodistribution experiments were performed using NODSCID IL2RγKO male mice. All experiments were conducted according to the guidelines established by the Canadian Council on Animal Care and approved by the Animal Ethics Committee of the University of British Columbia. Mice were anesthetized by inhalation with 2% isoflurane in oxygen and implanted subcutaneously with 1 × 10^7 LNCaP cells behind the left shoulder. The mice were imaged or used in biodistribution studies once the tumor reached 5–8 mm in diameter (5–6 wk).
For biodistribution and blocking studies, the mice were injected with 1–3 MBq of radiotracer. At 60 min, the mice were anesthetized with 2% isoflurane inhalation and euthanized by CO2 inhalation. Blood was withdrawn by cardiac puncture, and the organs and tissues of interest were collected, weighed, and counted using an automatic γ-counter (PerkinElmer). Uptake values were expressed as the percentage of the injected dose per gram of tissue (%ID/g).
A standard 1-way ANOVA was performed to determine whether statistically significant differences in tumor uptake occurred between radiotracers. Each radiotracer was compared with ^18F-DCFPyL using the Dunnett test (a many-to-one t test comparison). This analysis was also performed for kidney and blood activity and for tumor-to-blood and tumor-to-muscle ratios. Reported P values were adjusted for multiple comparisons. The analysis was performed using Prism 8 (GraphPad). […]
Statistical analyses were performed using GradPad prism 7. Multiple t tests were performed to compare biodistribution in unblocked and blocked mice, multiple comparisons were corrected using the Holm-Sidak method. The difference was considered statistically significant when p value was < 0.05.
Supplemental Table 1 – Complete biodistribution study for compounds [18F]1–3 […]
Tissue 1h 1h blocked 1h 1h blocked 1h 1h blocked
(%ID/g) n = 8 n = 4 n = 6 n = 4 n = 8 n = 5 […]
(1 picture or pasted object on this page, not shown here)

[4] = 1 h blocked (coinjection of DCFPyL 0.5 mg)

Structure (SMILES): C[N+](C)(Cc1cn(Cc2ccc(C(=O)NCCCC[C@H](NC(=O)N[C@@H](CCC(=O)O)C(=O)O)C(=O)O)cc2)nn1)C[B-](F)(F)F [^18F-2]
- Ki [1]: 11.8 ± 0.9 nM
- logD at 2 min [2]: -4.26 ± 0.04
- T/B (tumor-to-blood ratio) ([3]; 1 h after injection, unblocked): 15.95 ± 1.37
- T/K (tumor-to-kidney ratio) ([3]; 1 h after injection, unblocked): 0.12 ± 0.04
- T/M (tumor-to-muscle ratio) ([3]; 1 h after injection, unblocked): 37.30 ± 9.53
- adrenal uptake ([3]; 1 h after injection, unblocked): 4.65 ± 1.75 %ID/g
- blood uptake ([3]; 1 h after injection, unblocked): 0.52 ± 0.06 %ID/g
- bone uptake ([3]; 1 h after injection, unblocked): 0.44 ± 0.09 %ID/g
- brain uptake ([3]; 1 h after injection, unblocked): 0.04 ± 0.01 %ID/g
- fat uptake ([3]; 1 h after injection, unblocked): 0.73 ± 0.26 %ID/g
- heart uptake ([3]; 1 h after injection, unblocked): 0.33 ± 0.08 %ID/g
- intestine uptake ([3]; 1 h after injection, unblocked): 0.33 ± 0.05 %ID/g
- kidney uptake ([3]; 1 h after injection, unblocked): 71.70 ± 18.0 %ID/g
- liver uptake ([3]; 1 h after injection, unblocked): 1.69 ± 0.19 %ID/g
- lung uptake ([3]; 1 h after injection, unblocked): 1.39 ± 0.17 %ID/g
- muscle uptake ([3]; 1 h after injection, unblocked): 0.23 ± 0.04 %ID/g
- pancreas uptake ([3]; 1 h after injection, unblocked): 0.33 ± 0.05 %ID/g
- spleen uptake ([3]; 1 h after injection, unblocked): 5.01 ± 0.64 %ID/g
- stomach uptake ([3]; 1 h after injection, unblocked): 0.10 ± 0.03 %ID/g
- testes uptake ([3]; 1 h after injection, unblocked): 0.67 ± 0.17 %ID/g
- tumor uptake compared with ^18F-DCFPyL ([3]; 1 h after injection, 1-way ANOVA, Dunnett test): No statistically significant differences
- T/B (tumor-to-blood ratio) [3, 4]: 0.77 ± 0.48
- T/K (tumor-to-kidney ratio) [3, 4]: 0.13 ± 0.02
- T/M (tumor-to-muscle ratio) [3, 4]: 2.66 ± 1.60
- adrenal uptake [3, 4]: 0.20 ± 0.05 %ID/g
- blood uptake [3, 4]: 0.46 ± 0.24 %ID/g
- bone uptake [3, 4]: 0.30 ± 0.06 %ID/g
- brain uptake [3, 4]: 0.02 ± 0.00 %ID/g
- fat uptake [3, 4]: 0.06 ± 0.01 %ID/g
- heart uptake [3, 4]: 0.09 ± 0.02 %ID/g
- intestine uptake [3, 4]: 0.31 ± 0.02 %ID/g
- kidney uptake [3, 4]: 2.11 ± 0.19 %ID/g
- liver uptake [3, 4]: 1.76 ± 0.17 %ID/g
- lung uptake [3, 4]: 0.22 ± 0.03 %ID/g
- muscle uptake [3, 4]: 0.12 ± 0.05 %ID/g
- pancreas uptake [3, 4]: 0.06 ± 0.01 %ID/g
- spleen uptake [3, 4]: 0.09 ± 0.03 %ID/g
- stomach uptake [3, 4]: 0.06 ± 0.02 %ID/g
- testes uptake [3, 4]: 0.08 ± 0.02 %ID/g
- tumor uptake ([3]; 1 h after injection, unblocked, listed as 2): 8.3 ± 1.3 %ID/g
- tumor uptake ([3]; 1 h after injection, unblocked, listed as [18F]2): 8.28 ± 1.25 %ID/g
- tumor uptake [3, 4]: 0.27 ± 0.06 %ID/g
